The source of these data is patent publication US20240082203A1, “PHARMACEUTICAL COMPOSITION FOR INHALATION” (SHANGHAI HUILUN BIOLOGICAL TECHNOLOGY CO., LTD., priority 2020, published 2024).

The conditions of data set [1]: lyophilized preparation of Document 5 (anhydrous sodium carbonate, sodium chloride) kept at 60° C. for two weeks, per Document 4; cited from earlier work.
Another data set can be described thus: physchem. The class given is physicochemical. Conditions: water. The procedure:
The solubility of sivelestat sodium in water is less than 0.4 mg/mL, which cannot meet the administration requirements as an injection or inhalation preparation. Besides, sivelestat sodium is prone to hydrolysis in aqueous solution, generating the impurity with the following structure (hereinafter referred to as “impurity A”).

Bounds are passed on as bounds.

The solubility is how much of the substance goes into solution per volume. High values mean a readily soluble substance, low ones a poorly soluble substance. `CC(C)(C)C(=O)Oc1ccc(S(=O)(=O)Nc2ccccc2C(=O)NCC(=O)O)cc1` [sivelestat sodium, N-[2-[[[4-(2,2-dimethyl-1-oxopropoxy)phenyl]sulfonyl]amino]benzoyl]-(S)-glycine]: in data set [1], the “residual rate of sivelestat sodium” value is reported as 91.4%. The molecule also had a solubility in “physchem” below 400 µg/mL.
